The text below walks through data of US8637557B2, “Aminothiazole derivative” (Taisho Pharmaceutical Co., Ltd, priority 2009, dated 2014).

A value given as a limit tells only on which side of the number the result lay.

T1 sequence (P48736 whole entry): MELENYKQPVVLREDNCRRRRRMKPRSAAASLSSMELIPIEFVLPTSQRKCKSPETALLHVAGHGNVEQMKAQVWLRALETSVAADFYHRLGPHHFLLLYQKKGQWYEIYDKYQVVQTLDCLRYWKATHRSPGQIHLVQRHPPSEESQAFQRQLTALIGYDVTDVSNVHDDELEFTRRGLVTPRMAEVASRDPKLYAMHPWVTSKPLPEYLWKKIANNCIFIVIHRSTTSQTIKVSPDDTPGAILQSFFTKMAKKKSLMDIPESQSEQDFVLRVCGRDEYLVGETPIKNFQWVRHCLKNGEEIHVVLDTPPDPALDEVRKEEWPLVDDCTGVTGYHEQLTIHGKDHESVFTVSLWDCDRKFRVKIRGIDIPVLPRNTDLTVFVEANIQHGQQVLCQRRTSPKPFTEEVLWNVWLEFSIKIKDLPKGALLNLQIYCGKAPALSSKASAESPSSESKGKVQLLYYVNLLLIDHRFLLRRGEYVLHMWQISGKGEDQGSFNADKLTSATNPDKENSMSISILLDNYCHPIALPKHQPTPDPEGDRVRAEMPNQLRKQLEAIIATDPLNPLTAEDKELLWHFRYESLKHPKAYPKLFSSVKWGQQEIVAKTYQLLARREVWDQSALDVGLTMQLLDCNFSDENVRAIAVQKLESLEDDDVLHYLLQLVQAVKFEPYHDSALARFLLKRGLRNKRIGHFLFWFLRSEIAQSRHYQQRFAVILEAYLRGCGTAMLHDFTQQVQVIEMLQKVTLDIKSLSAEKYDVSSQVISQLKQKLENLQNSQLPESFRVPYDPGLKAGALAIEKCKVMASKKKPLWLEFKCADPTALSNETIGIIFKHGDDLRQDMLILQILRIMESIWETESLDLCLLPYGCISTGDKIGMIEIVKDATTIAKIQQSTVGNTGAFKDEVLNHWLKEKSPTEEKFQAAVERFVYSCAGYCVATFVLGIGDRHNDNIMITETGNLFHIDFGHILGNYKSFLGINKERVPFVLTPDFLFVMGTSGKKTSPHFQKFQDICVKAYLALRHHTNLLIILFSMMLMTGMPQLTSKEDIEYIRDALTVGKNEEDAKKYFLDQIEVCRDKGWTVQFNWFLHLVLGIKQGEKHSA

The test has as its target T1, human PI 3-kinase p120γ (Homo sapiens, UniProt P48736).
T1 construct: purchased Millipore Corporation
The experiment in a line: PI 3-kinase p120γ enzyme activity inhibition test. The test is classed as biochemical. The note with it: ATP 10.0 μM, PIP2-PS 5.0 μM, 30° C., 2 hours; read-out: PI3Kγ (IC50 value class). On the procedure:
Using human PI 3-kinase p120γ (manufactured by Millipore Corporation) and a mixed micellized product (hereinafter abbreviated as PIP2-PS) of the substrate thereof, L-a-Phosphatidyl-D-myo-inositol-4,5-bisphosphate (product of Calbiochem, hereinafter abbreviated as PIP2), and L-a-Phosphatidyl-L-Serine (manufactured by Sigma, hereinafter abbreviated as PS), the compound of the present invention was examined for the inhibitory action on PI3 Kinase p120γ enzyme activity (Km=8.9 μM for ATP, Km=4.0 μM for PIP2-PS).
PIP2-PS was prepared by mixing 500 μM of PIP2 and 2.5 nM of PS and sonicating the mixture for 40 minutes while ice cooling to cause micellization. ATP (final concentration 10.0 μM), [γ-^33P] ATP (final concentration 10 μCi/ml), PIP2-PS (final concentration 5.0 μM) and DMSO solutions of the test compound in different concentrations (compound final concentration 1.0×10^−5 to 2.4×10^−12 M, DMSO final concentration 0.1%) were added to PI 3-kinase p120γ, stirred and reacted at 30° C. for 2 hours. Using Phospholipid-Coated FlashPlate Microplates, 96-Well and Phospholipid FlashPlate Coating Buffer (both manufactured by PerkinElmer Co., Ltd.), PIP2-PS and phosphorylated PIP2-PS were allowed to be adsorbed to the well wall of the plate and collected. The well was washed twice with PBS (Phosphate-Buffered Saline) and dried. The radioactivity was measured using Top Count NXT (manufactured by PerkinElmer Co., Ltd.), whereby the phosphorylated amount (a) of PIP2-PS at the time of compound addition was calculated.
The same procedure was carried out in the absence of the test compound and the phosphorylated amount (b) of PIP2-PS was calculated. Further, the same procedure was carried out in the absence of both of the substrate and the test compound, and the PIP2-PS phosphorylated amount (c) of the background was calculated.
The PI3 Kinase p120γ enzyme activity suppression rate of the compound was calculated by the following formula. Suppression rate (%)=[1−(a−c)/(b−c)]×100
More specifically, using the suppression rate by the test compound of different concentrations, the IC50 value was calculated according to the dose-dependent inhibition curve analyzed by a data analysis software Origin (Lightstone Corp.) and used as the inhibitory activity index.
In general, IC50 refers to the concentration needed to halve the response being measured. Consider `CC(=O)Nc1nc(C)c(-c2nc(-c3cccc(O)c3)no2)s1` [Example 27], for which the IC50 was < 100 nM. As to `CC(=O)Nc1nc(C)c(-c2nc(Cc3cccc(CO)c3)no2)s1` [Example 36], the concentration for half-maximal inhibition (IC50) was in the range of 500 to 10000 nM. Consider `CC(=O)Nc1nc(C)c(-c2nc(/C=C(\C)CO)no2)s1` [Example 98], for which the IC50 was < 100 nM. On to `CC(=O)Nc1nc(C)c(-c2nc(C(C)(C)O)no2)s1` [Example 64], for which the half-maximal inhibitory concentration (IC50) is < 100 nM. For `CC(=O)Nc1nc(C)c(-c2nc(C(=O)C(C)(C)C)no2)s1` [Example 88], the half-maximal inhibitory concentration (IC50) was in the range of 100 to 500 nM. In the case of `Cc1nc(NC(=O)NCCOC(=O)C(C)(C)C)sc1-c1nc(-c2cccnc2)no1` [Example 135], the half-maximal inhibitory concentration (IC50) is < 100 nM. On to `CC(=O)Nc1nc(C)c(-c2nc(CC(C)O)no2)s1` (stereo not shown) [Example 38], for which the IC50 fell in the range of 100 to 500 nM.

Turning to `Cc1nc(NC(=O)NCCCC(=O)OC(C)(C)C)sc1-c1nc(-c2cccnc2)no1` [Example 125], the IC50 was < 100 nM. Consider `CCOC(C)(OCC)c1noc(-c2sc(NC(C)=O)nc2C)n1` [Example 58], for which the half-maximal inhibitory concentration (IC50) was in the range of 500 to 10000 nM. Turning to `CCC(O)C(C)(C)Cc1noc(-c2sc(NC(C)=O)nc2C)n1` (stereo not shown) [Example 97], the half-inhibitory concentration (IC50) was < 100 nM. As to `CC(=O)Nc1nc(C)c(-c2nc(CC(C)(C)C(C)(C)O)no2)s1` [Example 106], the concentration for half-maximal inhibition (IC50) is < 100 nM. In the case of `CC(=O)Nc1nc(C)c(-c2nc(-c3cncc(O)c3)no2)s1` [Example 32] it was < 100 nM; in that of `CC(=O)Nc1nc(C)c(-c2nc(C(=O)N3CCOCC3)no2)s1` [Example 72, N-{4-methyl-5-[3-(morpholin-4-ylcarbonyl)-1,2,4-oxadiazol-5-yl]-1,3-thiazol-2-yl}acetamide], 500 to 10000 nM. As for `Cc1nc(NC(=O)NCCC(=O)N2CCNCC2)sc1-c1nc(CC(F)(F)F)no1` [Example 169], the IC50 was < 100 nM. Take `CC(=O)Nc1nc(C)c(-c2nc([C@H]3CCCO3)no2)s1` [Example 92]: the IC50 is 100 to 500 nM. On to `CC(=O)Nc1nc(C)c(-c2nc(C(C)NC(C)=O)no2)s1` (stereo not shown) [Example 77], for which the IC50 was 500 to 10000 nM. Regarding `COC(C)(C)Cc1noc(-c2sc(NC(C)=O)nc2C)n1` [Example 84, N-{5-[3-(2-methoxy-2-methylpropyl)-1,2,4-oxadiazol-5-yl]-4-methyl-1,3-thiazol-2-yl}acetamide], the IC50 is 100 to 500 nM. For the compound `CC(=O)Nc1nc(C)c(-c2nc(CCC(C)(C)O)no2)s1` [Example 47], the IC50 lay within 100 to 500 nM. With `CC(=O)Nc1nc(C)c(-c2nc(Cn3cccn3)no2)s1` [Example 99], the 50% inhibitory concentration (IC50) was 500 to 10000 nM. With `CCC(CC)(CO)Cc1noc(-c2sc(NC(C)=O)nc2C)n1` [Example 46], the IC50 was < 100 nM.

For `CC(=O)Nc1nc(C)c(-c2nc(C(C)NC(=O)OC(C)(C)C)no2)s1` (stereo not shown) [Example 74], the IC50 was 500 to 10000 nM. Take `CC(=O)Nc1nc(C)c(-c2nc(-c3cncnc3)no2)s1` [Example 3, N-{4-methyl-5-[3-(pyrimidin-5-yl)-1,2,4-oxadiazol-5-yl]-1,3-thiazol-2-yl}acetamide]: the IC50 was < 100 nM. For `Cc1nc(NC(=O)NCCC(=O)N(C)C)sc1-c1nc(-c2cccnc2)no1` [Example 131], the concentration for half-maximal inhibition (IC50) is < 100 nM. For `CC(=O)Nc1nc(C)c(-c2nc(C(C)(C)CCO)no2)s1` [Example 73], the IC50 was < 100 nM. For `COC(=O)CCc1noc(-c2sc(NC(C)=O)nc2C)n1` [Example 71], the IC50 is 100 to 500 nM.

`CC(=O)Nc1nc(C)c(-c2nc(-c3cccnc3)no2)s1` [Example 1, N-{4-methyl-5-[3-(pyridin-3-yl)-1,2,4-oxadiazol-5-yl]-1,3-thiazol-2-yl}acetamide]: the half-maximal inhibitory concentration (IC50) was < 100 nM. Regarding `CC(=O)Nc1nc(C)c(-c2nc(C3CCOCC3)no2)s1` [Example 54], the 50% inhibitory concentration (IC50) was < 100 nM.

Turning to `COCCc1noc(-c2sc(NC(=O)NCCC(=O)OC(C)(C)C)nc2C)n1` [Example 154], the half-maximal inhibitory concentration (IC50) was < 100 nM. `CC(=O)Nc1nc(C)c(-c2nc(-c3ccc(CO)cc3)no2)s1` [Example 25]: the IC50 is < 100 nM. `CC(=O)Nc1nc(C)c(-c2nc(C3CCOC3)no2)s1` (stereo not shown) [Example 63]: the IC50 was < 100 nM.

Regarding `CC(=O)Nc1nc(C)c(-c2nc(N3CCOCC3)no2)s1` [Example 87, N-{4-methyl-5-[3-(morpholin-4-yl)-1,2,4-oxadiazol-5-yl]-1,3-thiazol-2-yl}acetamide], the IC50 fell in the range of 100 to 500 nM. With `Cc1nc(NC(=O)NCC(C)O)sc1-c1nc(-c2cncnc2)no1` (stereo not shown) [Example 176], the IC50 is < 100 nM.

For the compound `Cc1nc(NC(=O)NCCNC(=O)OC(C)(C)C)sc1-c1nc(-c2cccnc2)no1` [Example 134], the IC50 was < 100 nM. In the case of `CC(=O)Nc1nc(C)c(-c2nc(-c3cnccc3C)no2)s1` [Example 14] it was < 100 nM; in that of `Cc1nc(NC(=O)NCCS(=O)(=O)NC(C)(C)C)sc1-c1nc(-c2cccnc2)no1` [Example 133], < 100 nM. Consider `COCCCC(=O)Nc1nc(C)c(-c2nc(-c3cccnc3)no2)s1` [Example 128], for which the IC50 was < 100 nM. `COCC(=O)Nc1nc(C)c(-c2nc(-c3cccc(CO)c3)no2)s1` [Example 173]: the concentration for half-maximal inhibition (IC50) was < 100 nM. Consider `CCOC(=O)C(C)(C)Cc1noc(-c2sc(NC(C)=O)nc2C)n1` [Example 105], for which the IC50 lay within 100 to 500 nM.

As for `Cc1nc(NC(=O)NCCC(=O)OC(C)C)sc1-c1nc(-c2cccnc2)no1` [Example 140], the concentration for half-maximal inhibition (IC50) is < 100 nM. As to `CC(=O)Nc1nc(C)c(-c2nc(C(=O)NCC(C)O)no2)s1` (stereo not shown) [Example 91], the IC50 was 100 to 500 nM.

As to `CC(=O)Nc1nc(C)c(-c2nc(CCCCO)no2)s1` [Example 61], the IC50 was 100 to 500 nM. For the compound `CCOC(=O)CC(C)NC(=O)Nc1nc(C)c(-c2nc(-c3cccnc3)no2)s1` (stereo not shown) [Example 143], the half-maximal inhibitory concentration (IC50) is < 100 nM. For the compound `Cc1nc(NC(=O)NCCC(=O)O)sc1-c1nc(-c2cccnc2)no1` [Example 136], the IC50 was < 100 nM. As for `CC(=O)Nc1nc(C)c(-c2nc(CC3CC3)no2)s1` [Example 80], the concentration for half-maximal inhibition (IC50) was < 100 nM. Take `CC(=O)Nc1nc(C)c(-c2nc(CC(C)(C)CNS(C)(=O)=O)no2)s1` [Example 44]: the IC50 was < 100 nM. On to `CC(=O)Nc1nc(C)c(-c2nc(CC(C)(C)S(N)(=O)=O)no2)s1` [Example 107], for which the half-maximal inhibitory concentration (IC50) was in the range of 100 to 500 nM. In the case of `CC(=O)Nc1nc(C)c(-c2nc(-c3ccc(=O)[nH]c3)no2)s1` [Example 40], the IC50 was 100 to 500 nM. In the case of `CC(=O)Nc1nc(C)c(-c2nc([C@H](O)C(C)(C)C)no2)s1` [Example 69], the IC50 was < 100 nM. `CC(=O)Nc1nc(C)c(-c2nc(CC(C)(C)C)no2)s1` [Example 68]: the half-inhibitory concentration (IC50) is < 100 nM. As for `CC(=O)Nc1nc(C)c(-c2nc(CCCCOC(C)=O)no2)s1` [Example 59], the IC50 lay within 500 to 10000 nM. As to `CC(=O)Nc1nc(C)c(-c2nc(-c3cccc(CCO)c3)no2)s1` [Example 28], the IC50 was < 100 nM. Turning to `CC(=O)Nc1nc(C)c(-c2nc(CC(C)(C)C(C)=O)no2)s1` [Example 86], the concentration for half-maximal inhibition (IC50) was < 100 nM.

As for `CC(=O)Nc1nc(C)c(-c2nc(-c3cccc(CO)c3)no2)s1` [Example 21], the IC50 was < 100 nM. In the case of `COc1ccc(-c2noc(-c3sc(NC(C)=O)nc3C)n2)cn1` [Example 4], the 50% inhibitory concentration (IC50) was < 100 nM.

On to `Cc1nc(NC(=O)NCCC(=O)N2CCN(C(=O)OC(C)(C)C)CC2)sc1-c1nc(CC(F)(F)F)no1` [Example 168], for which the IC50 was 100 to 500 nM. For the compound `CC(=O)Nc1nc(C)c(-c2nc(C3CCCOC3)no2)s1` (stereo not shown) [Example 112], the IC50 was < 100 nM. In the case of `CC(=O)Nc1nc(C)c(-c2nc(-c3cncc(C)c3)no2)s1` [Example 15] it was < 100 nM. As for `CC(=O)Nc1nc(C)c(-c2nc(CCCOC(C)=O)no2)s1` [Example 30], the IC50 lay in the range of 500 to 10000 nM.

For the compound `CCOC(=O)[C@H]1CCCC1NC(=O)Nc1nc(C)c(-c2nc(-c3cccnc3)no2)s1` (stereo partly shown) [Example 144], the half-inhibitory concentration (IC50) was < 100 nM. In the case of `Cc1nc(NC(=O)NCCC(=O)NC(C)(C)C)sc1-c1nc(-c2cccnc2)no1` [Example 132], the concentration for half-maximal inhibition (IC50) is < 100 nM. Consider `Cc1nc(NC(=O)NCCC(=O)OC(C)(C)C)sc1-c1nc(CC(F)(F)F)no1` [Example 147], for which the half-inhibitory concentration (IC50) is < 100 nM.

Take `Cc1nc(NC(=O)NCC(=O)OC(C)(C)C)sc1-c1nc(-c2cccnc2)no1` [Example 126]: the IC50 was < 100 nM.

Turning to `Cc1nc(NC(=O)NCC(C)O)sc1-c1nc(-c2cccnc2)no1` (stereo not shown) [Example 175], the half-inhibitory concentration (IC50) is < 100 nM. As to `CC(=O)Nc1nc(C)c(-c2nc(C3CCC3)no2)s1` [Example 26], the IC50 is < 100 nM.
